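Values below derive from 48-hour exposures of cells grown in 96-well plates, with endpoints linearly interpolated between the two concentrations bracketing the appropriate inhibition level. GI50 = concentration required for 50% inhibition of growth. At the TGI there is no net growth.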
Assays:
Assay in all cases: NCI-60 cell line screen, 48 h
MDA-MB-435 = system: MDA-MB-435
786-0 renal = system: 786-0 renal
HS 578T breast = system: HS 578T breast
MDA-MB-231 breast = system: MDA-MB-231 breast
BT-549 breast = system: BT-549 breast
PC-3 prostate = system: PC-3 prostate
ACHN renal = system: ACHN renal
OVCAR-3 ovarian = system: OVCAR-3 ovarian
HCC-2998 colon = system: HCC-2998 colon
LXFL 529 NSCLC = system: LXFL 529 NSCLC
XF 498 CNS = system: XF 498 CNS

Cc1ccc(S(=O)(=O)Oc2cc(S(=O)(=O)O)cc3cc(S(=O)(=O)O)cc(N)c23)cc1
TGI (MDA-MB-435): > 100 µM | TGI (786-0 renal): > 100 µM | TGI (HS 578T breast): > 100 µM | TGI (MDA-MB-231 breast): > 100 µM | TGI (BT-549 breast): > 100 µM | TGI (PC-3 prostate): > 100 µM | TGI (ACHN renal): > 100 µM | TGI (OVCAR-3 ovarian): > 100 µM | TGI (HCC-2998 colon): > 100 µM

CCN(CC)CCCC(Nc1c2ccc(Cl)cc2nc2ccc(OC)cc12)c1ccc(F)cc1 (configuration not stated)
GI50 (MDA-MB-435): 1.73 µM | TGI (MDA-MB-435): 3.2 µM | GI50 (HS 578T breast): 1.69 µM | TGI (HS 578T breast): 4.17 µM | GI50 (MDA-MB-231 breast): 1.47 µM | TGI (MDA-MB-231 breast): 3.08 µM | GI50 (BT-549 breast): 12.8 µM | TGI (BT-549 breast): 26.4 µM | GI50 (PC-3 prostate): 2.7 µM | TGI (PC-3 prostate): 9.22 µM | GI50 (ACHN renal): 1.97 µM | TGI (ACHN renal): 3.64 µM | GI50 (OVCAR-3 ovarian): 2.16 µM | TGI (OVCAR-3 ovarian): 4.44 µM | GI50 (HCC-2998 colon): 1.74 µM | TGI (HCC-2998 colon): 3.25 µM

CN1C2C=C(c3ccccc3)CC1CC2 (configuration not stated)
TGI (786-0 renal): > 100 µM | TGI (LXFL 529 NSCLC): > 100 µM | TGI (ACHN renal): > 100 µM | TGI (OVCAR-3 ovarian): > 100 µM | TGI (XF 498 CNS): > 100 µM | TGI (HCC-2998 colon): > 100 µM

O=C(Nc1ccc(Cl)cc1)/C(Cc1cccc[n+]1[O-])=N\Nc1ccc([N+](=O)[O-])cc1[N+](=O)[O-]
TGI (786-0 renal): > 100 µM | TGI (LXFL 529 NSCLC): > 100 µM | TGI (ACHN renal): > 100 µM | TGI (OVCAR-3 ovarian): > 100 µM | TGI (HCC-2998 colon): > 100 µM

c1ccc2c(c1)nc1n2CSC1
TGI (LXFL 529 NSCLC): > 100 µM | TGI (ACHN renal): > 100 µM | TGI (OVCAR-3 ovarian): > 100 µM | TGI (XF 498 CNS): > 100 µM

CC1=C[C@]2(CC(C)C3C(CC4(C)C5CCC6C(C)(C)C(=O)CC[C@@]67C[C@@]57CC[C@]34C)O2)OC1=O (some centres not stated)
TGI (LXFL 529 NSCLC): > 100 µM | TGI (ACHN renal): > 100 µM | TGI (XF 498 CNS): 30 µM | TGI (HCC-2998 colon): > 100 µM

CN1CCN(Cc2ccc(NC(=O)c3ccc(C#N)c(C#Cc4cnc(N)c5ncccc45)c3)cc2C(F)(F)F)CC1
GI50 (BT-549 breast): 12.7 µM | TGI (BT-549 breast): 41.9 µM | GI50 (ACHN renal): 1.69 µM | TGI (ACHN renal): 3.15 µM | GI50 (OVCAR-3 ovarian): 3.34 µM | TGI (OVCAR-3 ovarian): 10.4 µM | GI50 (HCC-2998 colon): 3.89 µM | TGI (HCC-2998 colon): > 100 µM

CC(=O)[O-].CC(=O)[O-].[NH2-].[Pt+2].c1ccncc1
GI50 (MDA-MB-435): 53.2 µM | TGI (MDA-MB-435): > 100 µM | TGI (786-0 renal): > 100 µM | GI50 (HS 578T breast): 98.7 µM | TGI (HS 578T breast): > 100 µM | GI50 (MDA-MB-231 breast): > 100 µM | TGI (MDA-MB-231 breast): > 100 µM | GI50 (PC-3 prostate): > 100 µM | TGI (PC-3 prostate): > 100 µM | TGI (ACHN renal): 32.2 µM | TGI (OVCAR-3 ovarian): > 100 µM | TGI (HCC-2998 colon): > 100 µM

O=C1Nc2ccccc2Nc2nc3cccccc-3c21
TGI (786-0 renal): > 100 µM | TGI (LXFL 529 NSCLC): > 100 µM | TGI (ACHN renal): > 100 µM | TGI (OVCAR-3 ovarian): > 100 µM | TGI (XF 498 CNS): > 100 µM | TGI (HCC-2998 colon): > 100 µM

CC1(C)CCc2cc3c(-c4ccccc4)cc(=O)oc3cc2O1
TGI (LXFL 529 NSCLC): > 100 µM | TGI (ACHN renal): > 100 µM | TGI (OVCAR-3 ovarian): > 100 µM | TGI (XF 498 CNS): > 100 µM

Cc1nc2ccccc2c(=O)n1CC(=O)O
TGI (OVCAR-3 ovarian): > 100 µM | TGI (XF 498 CNS): > 100 µM | TGI (HCC-2998 colon): > 100 µM
